Assay results reported in BindingDB's records for doi:10.7270/Q2028PZ5 (Burnham Center For Chemical Genomics, 2010).

Target: G-protein coupled receptor 55 (Homo sapiens, UniProt Q9Y2T6)
Assay: GPR55 antagonists, SAR follow-up, counter-screen for GPR35 antagonist project, imaging, image-based (AID 2397)
Conditions: inactive by the depositor's call

Chain of G-protein coupled receptor 55 (Q9Y2T6 whole entry): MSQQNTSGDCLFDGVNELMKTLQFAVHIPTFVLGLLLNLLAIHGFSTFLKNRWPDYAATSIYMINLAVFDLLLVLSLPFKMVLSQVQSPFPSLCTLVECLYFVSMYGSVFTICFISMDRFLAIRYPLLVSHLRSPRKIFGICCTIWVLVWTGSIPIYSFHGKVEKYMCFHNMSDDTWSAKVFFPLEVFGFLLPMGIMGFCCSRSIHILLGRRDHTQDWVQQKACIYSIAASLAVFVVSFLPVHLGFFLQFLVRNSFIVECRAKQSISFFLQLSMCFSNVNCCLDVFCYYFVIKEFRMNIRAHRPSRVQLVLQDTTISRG

CC(/C=C1\SC(=S)N(CCCC(=O)Nc2ccc(C(=O)O)c(O)c2)C1=O)=C\c1ccccc1 [2-hydroxy-4-[[4-[(5Z)-5-[(E)-2-methyl-3-phenylprop-2-enylidene]-4-oxo-2-sulfanylidene-3-thiazolidinyl]-1-oxobutyl]amino]benzoic acid]
IC50: 21.7 µM
